According to EPA's ToxRefDB 2:

Tests used:
rat [1] = details: Sub-acute repeat dose toxicity; Oral; Gavage/Intubation; dose end: 14 day; group: systemic; systemic / in life observation / body weight / body weight gain + systemic / in life observation / clinical signs / reduced activity + …
rat [2] = details: Subchronic oral toxicity in rodents, sprague dawley, Gavage/Intubation, dose end: 90 day, group: systemic, systemic / clinical chemistry / calcium / calcium + systemic / clinical chemistry / cholesterol / cholesterol + systemic / clinical …
rat [3] = details: Sub-acute repeat dose toxicity; Oral; Gavage/Intubation; dose end: 38 day; group: systemic; systemic / clinical chemistry / albumin / albumin + systemic / clinical chemistry / creatinine / creatinine + systemic / clinical chemistry…
rabbit [4] = details: Sub-acute repeat dose toxicity, new zealand white, Oral, Gavage/Intubation, dose end: 13 day
rat [5] = details: Sub-acute repeat dose toxicity, sprague dawley, Oral, Feed, dose end: 15 day, group: systemic
rabbit [6] = details: Sub-acute repeat dose toxicity; new zealand white; Oral; Gavage/Intubation; dose end: 5 day; group: systemic; systemic / in life observation / food consumption / food consumption
dog [7] = details: Subchronic oral toxicity in nonrodent, beagle, Gavage/Intubation, dose end: 98 day, group: systemic
rat [8] = details: Fertility (Segment I); sprague dawley; Oral; Gavage/Intubation; dose end: 1 generation; group: parental; systemic / in life observation / body weight / body weight + systemic / in life observation / clinical signs / salivation + systemic / in …
mouse [9] = details: Sub-acute repeat dose toxicity, Oral, Feed, dose end: 15 day, group: systemic
dog [10] = details: Sub-acute repeat dose toxicity, beagle, Oral, Gavage/Intubation, dose end: 8 day, group: systemic
mouse [11] = details: Subchronic oral toxicity in rodents, Feed, dose end: 92 day, group: systemic
rat [12] = details: Subchronic oral toxicity in rodents, sprague dawley, Feed, dose end: 92 day, group: systemic
rat [13] = details: Peri- and post-natal toxicity study (Segment III), Oral, Gavage/Intubation, dose end: 1 generation
rat [14] = details: Prenatal developmental toxicity study, sprague dawley, Oral, Gavage/Intubation, dose end: 18 GD
rat [15] = details: Sub-acute repeat dose toxicity; Oral; Gavage/Intubation; dose end: 19 day; group: systemic; systemic / in life observation / body weight / body weight + systemic / in life observation / clinical signs / salivation
rat [16] = details: Fertility (Segment I); sprague dawley; Oral; Gavage/Intubation; dose end: 1 generation; group: parental; systemic / in life observation / body weight / body weight + systemic / in life observation / clinical signs / salivation + systemic / in …; remark: listed apart in the source
rabbit [17] = details: Prenatal developmental toxicity study, new zealand white, Oral, Gavage/Intubation, dose end: 19 GD, group: maternal
[18] = group: maternal, reproductive / reproductive performance / aborted / aborted
[19] = group: systemic, systemic / in life observation / body weight / body weight gain + systemic / in life observation / food consumption / food consumption
[20] = group: systemic, systemic / in life observation / body weight / body weight gain + systemic / in life observation / food consumption / food consumption + …
[21] = systemic / in life observation / body weight / body weight + systemic / in life observation / clinical signs / alopecia + systemic / in life…
[22] = systemic / in life observation / clinical signs / salivation
[23] = systemic / in life observation / clinical signs / salivation + systemic / in life observation / clinical signs / emesis
[24] = systemic / in life observation / body weight / body weight + systemic / in life observation / clinical signs / hunched posture + systemic / …
[25] = systemic / hematology / leukocyte (wbc) count differential / leukocyte (wbc) + systemic / in life observation / clinical signs / abnormal …
[26] = systemic / in life observation / clinical signs / abnormal feces + systemic / in life observation / clinical signs / salivation
[27] = systemic / clinical chemistry / cholesterol / cholesterol + systemic / in life observation / body weight / body weight + systemic / clinical…
[28] = systemic / hematology / lymphocyte / lymphocyte
[29] = systemic / in life observation / body weight / body weight
[30] = systemic / in life observation / body weight / body weight + systemic / in life observation / clinical signs / lacrimation or red-colored …
[31] = group: developmental, developmental / developmental landmark / eye opening / eye opening
[32] = group: parental, systemic / in life observation / body weight / body weight + systemic / in life observation / body weight / body weight gain + systemic / in…
[33] = group: developmental, developmental / developmental malformation / bone / [other] + systemic / in life observation / body weight / fetal weight
[34] = group: maternal, systemic / in life observation / body weight / body weight + systemic / in life observation / clinical signs / salivation + systemic / in …
[35] = systemic / in life observation / food consumption / food consumption
[36] = systemic / in life observation / food consumption / food consumption + reproductive / reproductive performance / aborted / aborted + …

In the case of `CS(=O)(=O)O.Cc1nccn1-c1ccc(Sc2cccc(C3(C(N)=O)CCOCC3)c2)cc1`, the LEL (rat [1]) was 200 mg/kg/day, the LOAEL (rat [1]) was > 200 mg/kg/day and the NEL (rat [1]) was < 200 mg/kg/day. For the same compound, the NOAEL (rat [1]) was ≥ 200 mg/kg/day, the LEL (rat [2]) was 20 mg/kg/day and the LOAEL (rat [2]) was > 150 mg/kg/day. For the same compound, the NEL (rat [2]) was 5 mg/kg/day, the NOAEL (rat [2]) was ≥ 150 mg/kg/day and the LEL (rat [3]) was 250 mg/kg/day. The LOAEL (rat [3]) was > 250 mg/kg/day, the NEL (rat [3]) was < 250 mg/kg/day and the NOAEL (rat [3]) was ≥ 250 mg/kg/day. The LEL (rabbit [4]; [18]) was 50 mg/kg/day, the LOAEL (rabbit [4]; [18]) was > 200 mg/kg/day and the NEL (rabbit [4]; [18]) was 10 mg/kg/day. For the same compound, the NOAEL (rabbit [4]; [18]) was ≥ 200 mg/kg/day, the LEL (rabbit [4]; [19]) was 10 mg/kg/day and the NEL (rabbit [4]; [19]) was < 10 mg/kg/day. For the same compound, the LOAEL (rabbit [4]; [20]) was > 200 mg/kg/day, the NOAEL (rabbit [4]; [20]) was ≥ 200 mg/kg/day and the LOAEL (rat [5]; [21]) was > 600 mg/kg/day. The NEL (rat [5]; [21]) was 30 mg/kg/day, the NOAEL (rat [5]; [21]) was ≥ 600 mg/kg/day and the LEL (rat [5]; systemic / in life observation / body weight / body weight + systemic / in life observation / food consumption / food consumption) was 100 mg/kg/day. For the same compound, the LEL (rabbit [6]) was 10 mg/kg/day, the LOAEL (rabbit [6]) was > 100 mg/kg/day and the NEL (rabbit [6]) was < 10 mg/kg/day. For the same compound, the NOAEL (rabbit [6]) was ≥ 100 mg/kg/day, the LEL (dog [7]; [22]) was 3 mg/kg/day and the NEL (dog [7]; [22]) was < 3 mg/kg/day. The LOAEL (dog [7]; [23]) was > 30 mg/kg/day, the NOAEL (dog [7]; [23]) was ≥ 30 mg/kg/day and the LEL (rat [8]) was 50 mg/kg/day. The LOAEL (rat [8]) was > 50 mg/kg/day, the NEL (rat [8]) was 15 mg/kg/day and the NOAEL (rat [8]) was ≥ 50 mg/kg/day. For the same compound, the LOAEL (mouse [9]; [24]) was > 1200 mg/kg/day, the NOAEL (mouse [9]; [24]) was ≥ 1200 mg/kg/day and the LEL (mouse [9]; systemic / in life observation / body weight / body weight + systemic / in life observation / food consumption / food consumption + systemic…) was 600 mg/kg/day. The LOAEL (dog [10]; [25]) was > 60 mg/kg/day, the NOAEL (dog [10]; [25]) was ≥ 60 mg/kg/day and the LEL (dog [10]; [26]) was 3 mg/kg/day. For the same compound, the NEL (dog [10]; [26]) was < 3 mg/kg/day, the LOAEL (mouse [11]; [27]) was > 600 mg/kg/day and the NOAEL (mouse [11]; [27]) was ≥ 600 mg/kg/day. The LEL (mouse [11]; [28]) was 30 mg/kg/day, the NEL (mouse [11]; [28]) was < 30 mg/kg/day and the LEL (rat [12]; [29]) was 10 mg/kg/day. The NEL (rat [12]; [29]) was < 10 mg/kg/day, the LOAEL (rat [12]; [30]) was > 100 mg/kg/day and the NOAEL (rat [12]; [30]) was ≥ 100 mg/kg/day. The LEL (rat [13]; [31]) was 50 mg/kg/day, the LOAEL (rat [13]; [31]) was > 50 mg/kg/day and the NOAEL (rat [13]; [31]) was ≥ 50 mg/kg/day. For the same compound, the LEL (rat [13]; [32]) was 15 mg/kg/day, the LOAEL (rat [13]; [32]) was > 50 mg/kg/day and the NEL (rat [13]; [32]) was 5 mg/kg/day. For the same compound, the NOAEL (rat [13]; [32]) was ≥ 50 mg/kg/day, the LEL (rat [14]; [33]) was 50 mg/kg/day and the LOAEL (rat [14]; [33]) was > 50 mg/kg/day. For the same compound, the NOAEL (rat [14]; [33]) was ≥ 50 mg/kg/day, the LOAEL (rat [14]; [34]) was > 50 mg/kg/day and the NEL (rat [14]; [34]) was 5 mg/kg/day. The NOAEL (rat [14]; [34]) was ≥ 50 mg/kg/day, the LEL (rat [14]; group: maternal, systemic / in life observation / body weight / body weight + systemic / in life observation / food consumption / food consumption) was 15 mg/kg/day and the LEL (rat [15]) was 100 mg/kg/day. For the same compound, the LOAEL (rat [15]) was > 100 mg/kg/day, the NEL (rat [15]) was < 100 mg/kg/day and the NOAEL (rat [15]) was ≥ 100 mg/kg/day. The LEL (rat [16]) was 50 mg/kg/day, the LOAEL (rat [16]) was > 50 mg/kg/day and the NEL (rat [16]) was 15 mg/kg/day. The NOAEL (rat [16]) was ≥ 50 mg/kg/day, the LEL (rabbit [17]; [35]) was 2 mg/kg/day and the NEL (rabbit [17]; [35]) was < 2 mg/kg/day. The LOAEL (rabbit [17]; [36]) was > 25 mg/kg/day and the NOAEL (rabbit [17]; [36]) was ≥ 25 mg/kg/day.
